Experimental data from US5863935A, “Therapeutic heterocyclic compounds” (Zeneca Limited, priority 1990, dated 1999).

How the values were obtained:
"5-HT1 -like" receptor = "5-HT1 -like" receptor (Oryctolagus cuniculus, UniProt P49144); test: Agonist activity, contraction of rabbit lateral saphenous vein rings
dog = test: 30-day escalating-dose toxicity study in dogs; type: in vivo; settings: free base, 30 days, dosage increased from 2 mg/kg on Day 1 to 100 mg/kg on Day 30
Protocol: (§1) The hydrochloride salt of the compound of Synthetic Examples 2/3 was administered orally by gavage to Wistar rats as a solution in distilled water at dosages of 25, 100 and 200 mg/kg base and to Beagle dogs at dosages of 0.25, 0.50, 1.0 and 2.0 mg/kg base once a dav for 14 days. In a separate dog study over 30 days, the dosage of the free base was increased from 2 mg/kg on Day 1 to 100 mg/kg on Day 30. The free base was also administered orally to cynomolgus monkeys at a dosage of 50 mg/kg once a day for 15 days.

cynomolgus monkeys = settings: cynomolgus monkey, in vivo, po, 50 mg/kg
Protocol: as §1

Beagle dogs = test: 14-day oral toxicity in Beagle dogs; type: in vivo, dog; settings: hydrochloride salt, oral gavage, Beagle dogs, 0.25, 0.50, 1.0 and 2.0 mg/kg base once a day for 14 days
Protocol: as §1

Sequence of "5-HT1 -like" receptor (P49144 whole entry): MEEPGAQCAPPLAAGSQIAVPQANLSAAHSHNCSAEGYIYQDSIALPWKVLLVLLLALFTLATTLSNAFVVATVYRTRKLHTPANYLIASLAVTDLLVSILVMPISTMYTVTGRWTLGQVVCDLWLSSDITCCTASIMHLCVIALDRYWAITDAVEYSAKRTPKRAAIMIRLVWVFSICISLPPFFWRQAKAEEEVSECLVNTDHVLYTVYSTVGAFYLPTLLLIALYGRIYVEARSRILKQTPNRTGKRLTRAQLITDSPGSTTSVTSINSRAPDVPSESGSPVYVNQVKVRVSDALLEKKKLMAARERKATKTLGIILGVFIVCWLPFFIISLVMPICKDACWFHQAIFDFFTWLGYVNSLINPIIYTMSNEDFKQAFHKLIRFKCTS

| Structure (SMILES) | EC50 ("5-HT1 -like" receptor) | Toxicity (dog) | Toxicity (cynomolgus monkeys) | Toxicity (Beagle dogs) |
| --- | --- | --- | --- | --- |
| CN1CCC(c2c[nH]c3ccc(CC4COC(=O)N4)cc23)CC1 (racemic) [4/5, (±)-3-(1-methyl-4-piperidyl)-5-(2-oxo-1,3-oxazolidin-4-yl-methyl)-1H-indole] | 501 nM | – | – | – |
| CN(C)CCc1c[nH]c2ccc(C[C@H]3COC(=O)N3)cc12 [2/3, (S)-N,N-dimethyl-2-[5-(2-oxo-1,3-oxazolidin-4-ylmethyl)-1H-indol-3-yl]ethylamine 0.9 isopropanolate 0.5 hydrate] | 100 nM | No evidence of toxicity | No evidence of toxicity | No evidence of toxicity |
